Laboratory results reported in patent publication US20240360178A1, “MACROCYCLIC IMMUNOMODULATORS” (Bristol-Myers Squibb Company, priority 2021, published 2024).
Positions of bridges follow the written chain, without caps; N, C: chain ends. Non-standard residues stand in square brackets, D forms with d. Residues, ends and D or L forms follow the SMILES beside them. ξ: configuration not given here. *: point of attachment. Phe(4-COOH) = N[C@@H](Cc1ccc(C(=O)O)cc1)C(=O)O; Bip = N[C@@H](Cc1ccc(-c2ccccc2)cc1)C(=O)O; Phe(3-Me) = Cc1cccc(C[C@H](N)C(=O)O)c1; Val(3-OH) = CC(C)(O)[C@H](N)C(=O)O; NMeF = CN[C@@H](Cc1ccccc1)C(=O)O; 4Pal = N[C@@H](Cc1ccncc1)C(=O)O; Cha = N[C@@H](CC1CCCCC1)C(=O)O; Thr(3ξ) = CC(O)[C@H](N)C(=O)O; Carboxymethyl = O=C(O)C*; NMeA = CN[C@@H](C)C(=O)O; Orn = NCCC[C@H](N)C(=O)O; Dab = NCC[C@H](N)C(=O)O; Sar = CNCC(=O)O

These molecules were tested against T1, human PD-1 (Jurkat-PD-1 cells) / PE-labeled human PD-L1-Ig (Homo sapiens, UniProt Q15116) (assay: Jurkat-PD-1 Cell Binding High-Content Screening Assay (CBA); Jurkat hPD1-PDL1 assay). Settings: Jurkat cell line over-expressing human PD-1; PE-labeled PD-L1-Ig 20 nM final; compound incubated 2 hours at 37° C.; read-out: Jurkat HPD1-PDL1 IC50.
T1 construct: expressed in transfected cells; host or cells: Jurkat cell line over-expressing human PD-1
T1 sequence (Q15116 25-288): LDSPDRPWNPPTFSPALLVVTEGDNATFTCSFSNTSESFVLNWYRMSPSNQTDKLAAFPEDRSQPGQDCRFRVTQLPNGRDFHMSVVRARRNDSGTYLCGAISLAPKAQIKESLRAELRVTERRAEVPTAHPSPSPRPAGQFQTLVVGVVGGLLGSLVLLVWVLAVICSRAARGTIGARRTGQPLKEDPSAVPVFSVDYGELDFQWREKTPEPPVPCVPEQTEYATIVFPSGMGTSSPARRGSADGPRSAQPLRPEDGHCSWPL
Summary of the method: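 Cell binding by imaging: Jurkat line stably over-expressing human PD-1, compound pre-exposure 2 h at 37° C, PE-conjugated PD-L1-Ig 20 nM final, medium DMEM containing 10% FCS.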

First: CC(C)C[C@@H]1NC(=O)[C@H](Cc2c[nH]c3ccccc23)NC(=O)[C@H](CC(=O)O)NC(=O)[C@H](Cc2ccc(C(=O)O)cc2)NC(=O)[C@H](Cc2ccccc2)NC(=O)CSC[C@@H](C(=O)N[C@@H](C)C(N)=O)NC(=O)[C@H](CO)NC(=O)[C@H](C(C)C)NC(=O)[C@H](CC(C)C)NC(=O)[C@H](CC(N)=O)NC(=O)[C@H]2CCCN2C(=O)[C@H](C)N(C)C(=O)[C@H](C(C)C)NC(=O)[C@H](Cc2ccc(-c3ccccc3)cc2)NC1=O [Example 1020] ({CH2CO}-F[Phe(4-COOH)]DWL[Bip]V[NMeA][dP]NLVSCA-NH2; thioether N-14)
Second: CC(C)C[C@@H]1NC(=O)[C@H](Cc2c[nH]c3ccccc23)NC(=O)[C@H](CC(=O)O)NC(=O)[C@H](Cc2ccc(C(=O)O)cc2)NC(=O)[C@H](CC(N)=O)NC(=O)CSC[C@@H](C(=O)N[C@@H](C)C(N)=O)NC(=O)[C@H](CO)NC(=O)[C@H](C(C)C)NC(=O)[C@H](CC(C)C)NC(=O)[C@H](CC(N)=O)NC(=O)[C@H]2CCCN2C(=O)[C@H](C)N(C)C(=O)[C@H](C(C)C)NC(=O)[C@H](Cc2ccc(-c3ccccc3)cc2)NC1=O [Example 1059] ({CH2CO}-N[Phe(4-COOH)]DWL[Bip]V[NMeA][dP]NLVSCA-NH2; thioether N-14)
The IC50 of the first is 3.5-fold lower: 40 nM for the first, 140 nM for the second.

First: CC(C)C[C@@H]1NC(=O)[C@H](Cc2c[nH]c3ccccc23)NC(=O)[C@H](CC(=O)O)NC(=O)[C@H](Cc2ccc(O)cc2)NC(=O)[C@H](CC(N)=O)NC(=O)CSC[C@@H](C(=O)NCC(N)=O)NC(=O)[C@H]([C@@H](C)O)NC(=O)[C@H](C(C)C)NC(=O)[C@H](CC(C)C)NC(=O)[C@H](CC(N)=O)NC(=O)[C@H]2CCCN2C(=O)[C@H](CCCN)NC(=O)[C@H](C(C)C)NC(=O)[C@H](Cc2ccc(-c3ccccc3)cc2)NC1=O [Example 1424] ({CH2CO}-NYDWL[Bip]V[Orn][dP]NLVTCG-NH2; thioether N-14)
Second: CC(C)C[C@@H]1NC(=O)[C@H](Cc2c[nH]c3ccccc23)NC(=O)[C@H](CC(=O)O)NC(=O)[C@H](Cc2ccc(O)cc2)NC(=O)[C@H](Cc2ccccc2)NC(=O)CSC[C@@H](C(=O)NCC(N)=O)NC(=O)[C@H](C(C)O)NC(=O)[C@H](C(C)C)NC(=O)[C@H](CC(C)C)NC(=O)[C@H](CC(N)=O)NC(=O)CN(C)C(=O)[C@H](C)N(C)C(=O)[C@H](C(C)C)NC(=O)[C@H](Cc2ccc(-c3ccccc3)cc2)NC1=O (stereo partly drawn) [Example 1109] ({CH2CO}-FYDWL[Bip]V[NMeA][Sar]NLV[Thr(3ξ)]CG-NH2; thioether N-14)
The IC50 of the first is 1.9-fold higher: 660 nM for the first, 350 nM for the second. The second is the more potent here.

First: CC(C)C[C@@H]1NC(=O)[C@H](CCCCN)NC(=O)[C@H](Cc2ccccc2)N(C)C(=O)[C@H](C)N(C)C(=O)[C@H](CCCNC(=N)N)NC(=O)[C@H](Cc2ccc(-c3ccccc3)cc2)NC(=O)[C@H](C(C)C)NC(=O)[C@H](Cc2c[nH]c3ccccc23)NC(=O)[C@H](CC(=O)O)NC(=O)[C@H](Cc2ccc(O)cc2)NC(=O)[C@H](CC(N)=O)NC(=O)CSC[C@@H](C(=O)N[C@@H](CCC(=O)O)C(N)=O)NC(=O)[C@H]([C@@H](C)O)NC(=O)[C@H](C(C)C)NC1=O [Example 1360] ({CH2CO}-NYDWV[Bip]R[NMeA][NMeF]KLVTCE-NH2; thioether N-14)
Second: CC(C)C[C@@H]1NC(=O)[C@H](CCCNC(=N)N)NC(=O)[C@H](Cc2ccccc2)N(C)C(=O)[C@H](C)N(C)C(=O)[C@H](CCCNC(=N)N)NC(=O)[C@H](Cc2ccc(-c3ccccc3)cc2)NC(=O)[C@H](C(C)C)NC(=O)[C@H](Cc2c[nH]c3ccccc23)NC(=O)[C@H](CC(=O)O)NC(=O)[C@H](Cc2ccc(O)cc2)NC(=O)[C@H](CC(N)=O)NC(=O)CSC[C@@H](C(=O)N[C@@H](C)C(N)=O)NC(=O)[C@H](CCCN)NC(=O)[C@H](C(C)C)NC1=O [Example 1373] ({CH2CO}-NYDWV[Bip]R[NMeA][NMeF]RLV[Orn]CA-NH2; thioether N-14)
The IC50 of the first is 3.2-fold higher: 570 nM for the first, 180 nM for the second. The second is the more potent here.

Compared with `CC(C)C[C@@H]1NC(=O)[C@H](CCCNC(=N)N)NC(=O)[C@H](Cc2ccccc2)N(C)C(=O)[C@H](C)N(C)C(=O)[C@H](CCCNC(=N)N)NC(=O)[C@H](Cc2ccc(-c3ccccc3)cc2)NC(=O)[C@H](C(C)C)NC(=O)[C@H](Cc2c[nH]c3ccccc23)NC(=O)[C@H](CC(=O)O)NC(=O)[C@H](Cc2ccc(O)cc2)NC(=O)[C@H](Cc2ccccc2)NC(=O)CSC[C@@H](C(=O)NCC(N)=O)NC(=O)[C@H]([C@@H](C)O)NC(=O)[C@H](C(C)C)NC1=O` [Example 1129] ({CH2CO}-FYDWV[Bip]R[NMeA][NMeF]RLVTCG-NH2; thioether N-14), `CC(C)C[C@@H]1NC(=O)[C@H](CCCNC(=N)N)NC(=O)[C@H](Cc2ccccc2)N(C)C(=O)[C@H](C)N(C)C(=O)[C@H](CCCNC(=N)N)NC(=O)[C@H](Cc2ccc(-c3ccccc3)cc2)NC(=O)[C@H](C(C)C)NC(=O)[C@H](Cc2c[nH]c3ccccc23)NC(=O)[C@H](CC(=O)O)NC(=O)[C@H](Cc2ccc(O)cc2)NC(=O)[C@H](Cc2ccccc2)NC(=O)CSC[C@@H](C(=O)N[C@@H](CO)C(N)=O)NC(=O)[C@H](CO)NC(=O)[C@H](C(C)C)NC1=O` [Example 1083] ({CH2CO}-FYDWV[Bip]R[NMeA][NMeF]RLVSCS-NH2; thioether N-14) is 2.1-fold lower in IC50: 500 nM for the first, 240 nM for the second.

Compared with `CC(C)C[C@@H]1NC(=O)[C@H](CCCNC(=N)N)NC(=O)[C@H](Cc2ccccc2)N(C)C(=O)[C@H](C)N(C)C(=O)[C@H](CCCNC(=N)N)NC(=O)[C@H](Cc2ccc(-c3ccccc3)cc2)NC(=O)[C@H](C(C)C)NC(=O)[C@H](Cc2c[nH]c3ccccc23)NC(=O)[C@H](CC(=O)O)NC(=O)[C@H](Cc2ccc(C(=O)O)cc2)NC(=O)[C@H](CCC(N)=O)NC(=O)CSC[C@@H](C(=O)NCC(N)=O)NC(=O)[C@H](CO)NC(=O)[C@H](C(C)C)NC1=O` [Example 1297] ({CH2CO}-Q[Phe(4-COOH)]DWV[Bip]R[NMeA][NMeF]RLVSCG-NH2; thioether N-14), `CC(C)C[C@@H]1NC(=O)[C@H](CCCNC(=N)N)NC(=O)[C@H](Cc2ccccc2)N(C)C(=O)[C@H](C)N(C)C(=O)[C@H](CCCNC(=N)N)NC(=O)[C@H](Cc2ccc(-c3ccccc3)cc2)NC(=O)[C@H](C(C)C)NC(=O)[C@H](Cc2c[nH]c3ccccc23)NC(=O)[C@H](CC(=O)O)NC(=O)[C@H](Cc2ccc(O)cc2)NC(=O)CNC(=O)CSC[C@@H](C(=O)NCC(N)=O)NC(=O)[C@H](CO)NC(=O)[C@H](C(C)C)NC1=O` [Example 1258] ({CH2CO}-GYDWV[Bip]R[NMeA][NMeF]RLVSCG-NH2; thioether N-14) is 1.8-fold lower in IC50: 420 nM for the first, 240 nM for the second. The second is the more potent here.

Compared with `CC(C)C[C@@H]1NC(=O)[C@H](CCCNC(=N)N)NC(=O)[C@H](Cc2ccccc2)N(C)C(=O)[C@H](C)N(C)C(=O)[C@H](C(C)C)NC(=O)[C@H](Cc2ccc(-c3ccccc3)cc2)NC(=O)[C@H](C(C)C)NC(=O)[C@H](Cc2c[nH]c3ccccc23)NC(=O)[C@H](CC(=O)O)NC(=O)[C@H](Cc2ccc(O)cc2)NC(=O)[C@H](Cc2ccccc2)NC(=O)CSC[C@@H](C(=O)N[C@@H](C)C(N)=O)NC(=O)[C@H](CO)NC(=O)[C@H](C(C)C)NC1=O` [Example 1115] ({CH2CO}-FYDWV[Bip]V[NMeA][NMeF]RLVSCA-NH2; thioether N-14), `CC(C)C[C@@H]1NC(=O)[C@H](Cc2c[nH]c3ccccc23)NC(=O)[C@H](CC(=O)O)NC(=O)[C@H](Cc2ccc(O)cc2)NC(=O)[C@H](Cc2ccccc2)NC(=O)CSC[C@@H](C(=O)NCC(N)=O)NC(=O)[C@H](CCCNC(=N)N)NC(=O)[C@H](C(C)C)NC(=O)[C@H](CC(C)C)NC(=O)[C@H](CC(N)=O)NC(=O)CN(C)C(=O)[C@H](C)N(C)C(=O)[C@H](C(C)C)NC(=O)[C@H](Cc2ccc(-c3ccccc3)cc2)NC1=O` [Example 1226] ({CH2CO}-FYDWL[Bip]V[NMeA][Sar]NLVRCG-NH2; thioether N-14) is 2.2-fold higher in IC50: 400 nM for the first, 890 nM for the second.

First: Cc1cccc(C[C@@H]2NC(=O)[C@H](CC(=O)O)NC(=O)[C@H](Cc3ccc(OCC(=O)O)cc3)NC(=O)[C@H](Cc3ccncc3)NC(=O)CSC[C@@H](C(=O)N[C@@H](CCN)C(N)=O)NC(=O)[C@H](CO)NC(=O)[C@H](C(C)(C)O)NC(=O)[C@H](CC3CCCCC3)NC(=O)[C@H](CCN)NC(=O)[C@H]3CCCN3C(=O)[C@H](C)N(C)C(=O)[C@H](C(C)C)NC(=O)[C@H](Cc3ccc(-c4ccccc4)cc3)NC(=O)[C@H](Cc3ccc(OCC(=O)O)cc3)NC2=O)c1 [Example 1184] ({CH2CO}-[4Pal]Y(Carboxymethyl)D[Phe(3-Me)]Y(Carboxymethyl)[Bip]V[NMeA][dP][Dab][Cha][Val(3-OH)]SC[Dab]-NH2; thioether N-14)
Second: CC(C)C[C@@H]1NC(=O)[C@H](Cc2c[nH]c3ccccc23)NC(=O)[C@H](CC(=O)O)NC(=O)[C@H](Cc2ccc(O)cc2)NC(=O)[C@H](Cc2ccccc2)NC(=O)CSC[C@@H](C(=O)N[C@@H](C)C(N)=O)NC(=O)[C@H](Cc2cnc[nH]2)NC(=O)[C@H](C(C)C)NC(=O)[C@H](CC(C)C)NC(=O)[C@H](CC(N)=O)NC(=O)CN(C)C(=O)[C@H](C)N(C)C(=O)[C@H](C(C)C)NC(=O)[C@H](Cc2ccc(-c3ccccc3)cc2)NC1=O [Example 1127] ({CH2CO}-FYDWL[Bip]V[NMeA][Sar]NLVHCA-NH2; thioether N-14)
The IC50 of the first is 24-fold lower: 20 nM for the first, 480 nM for the second. The first is the more potent here.

Molecule `CC(C)C[C@@H]1NC(=O)[C@H](C)NC(=O)CN(C)C(=O)[C@H](C)N(C)C(=O)[C@H](C(C)C)NC(=O)[C@H](Cc2ccc(-c3ccccc3)cc2)NC(=O)[C@H](CC(C)C)NC(=O)[C@H](Cc2c[nH]c3ccccc23)NC(=O)[C@H](CC(=O)O)NC(=O)[C@H](Cc2ccc(O)cc2)NC(=O)[C@H](Cc2ccccc2)NC(=O)CSC[C@@H](C(=O)NCC(N)=O)NC(=O)[C@H](CO)NC(=O)[C@H](C(C)C)NC1=O` [Example 1130] ({CH2CO}-FYDWL[Bip]V[NMeA][Sar]ALVSCG-NH2; thioether N-14) has an IC50 of 500 nM.
